In data set [1] the test system is isolated auricles of guinea pigs. Put plainly: Reduction of the maximum driving frequency (MDF) of isolated auricles of guinea pigs. The format is cell-based, guinea pig. The note with it: Cavia porcellus; isolated left auricles; tyrode solution, 37° C., pH 7.4; cumulative addition; MDF 5 and 10 minutes after adding; read-out: EC50: concentration causing a 50% decrease of the maximum driving frequency (MDF). The method, then: 1. reduction of the maximum driving frequency of isolated auricles of guinea pigs The tests were carried out using an adaption of the method of DAWES (Brit. J. Pharmacol.1, 90, 1946). Guinea pigs of both sexes, body weight between 300 and 400 gm were killed by a blow on the neck. The left auricles were quickly removed and put into an organ bath of 100 ml. The organ bath was filled with tyrode solution, which was infused with a mixture of 98% of oxygen and 2% of carbon dioxide. […] The auricles were stimulated with square wave impulses of 1 millisecond duration at a voltage 200% higher than the threshold voltage and a frequency of 1 Hz (Hugo Sachs, Stimulator II). A weight of 0.4 gm was applied to the auricles and the contractions were continuously measured isometrically by means of a force displacement transducer (Grass Ft 03) and recorded on a Grass polygraph (model 5). After sufficient equilibration time (15 min.) the stimulation rate was increased every 10 seconds by 1 Hz until the maximum driving frequency (MDF) was reached. The MDF is defined as the stimulation frequency, where every stimulation is still answered by a contraction. The MDF was determined before and 5 and 10 minutes after adding the test compound. The test compound was added cumulatively to the organ bath. The concentration causing a 50% decrease of the MDF (EC50) was calculated from a dose-response curve.

Data set [2] relates to ouabain-induced ventricular arrhythmia in dogs. As to the kind of experiment: Suppression of ouabain-induced ventricular arrhythmia in dogs. It counts as in vivo, dog. The note with it: 12 dogs. The method, then:
(§1) 3. Suppression of ouabain-induced ventricular arrhythmia in dogs
(§2) According to the method described by ALLEN, et al. (supra), dogs were anesthetized by subcutaneous injection of morphine sulfate (0.5 mgm/kg), followed by intravenous injection of pentobarbitone (20 mgm/kg). The animals were given artificial respiration with room air from a Starling pump via a cuffed endotracheal tube. The electrocardiogram (lead II) was recorded on a Devices recorder (Type M8 or M 4). Test compound administration was through a polyethylene catheter inserted in a foreleg vein.
(§3) Observations were made on 12 dogs. Ventricular tachycardia was produced by intravenous injection of ouabain, first 40 mgm/kg, followed after 30 minutes by 20 mgm/kg and by 10 mgm/kg every 15 minutes until ventricular tachycardia was established. 10 minutes after the last ouabain injection, the test compound was continuously infused intravenously from a motor-driven syringe at a rate of 0.2 mgm/kg per minute, until sinus rhythm returned. The mean dose of ouabain to produce ventricular tachycardia was 60 ± 2.8 mg/kg. The mean dose of compound A required to convert the ventricular tachycardia to sinus rhythm was 0.76 ± 0.18 mg/kg i.v.

The nature of a further data set: in vivo. It counts as in vivo, dog. The note with it: dog, in vivo, iv. Here is the method: (§4) 2. prevention of ventricular arrhythmia provoked by adrenalin in dogs under halothane anesthesia
(§5) According to the method described by ALLEN, et al in Brit. J. Pharmacol. 45, 561 (1972), dogs were anesthetized by subcutaneous injection of 0.5 mgm/kg morphine sulfate and by intravenous injection of 20 mg/kg pentobarbitone. The animals were given artificial respiration with room air from a Starling pump via a cuffed endotracheal tube. The electrocardiogram (lead II) was recorded on a Devices recorder (Type M 8 or M 4). The test compound was injected through a polyethylene catheter inserted into a foreleg vein.
(§6) Observations were made on 4 dogs. The artificial respiration was continued adding 1% halothane to the room air. 15 minutes later adrenalin was injected at doses of 0.2 and increased to 0.4, 0.8, 1.2, 1.6, 2.0, 2.4 and 2.8 […], at intervals of 7 to 10 minutes between each dose, until ventricular tachycardia had been produced. After the arrhythmia-producing dose of adrenalin had been established, compound A was injected intravenously. 5 minutes later the adrenalin injection was repeated, using the same dose. The dose of the test compound was increased to obtain the minimum dose which prevented the adrenalin-induced arrhythmia.
as §1, §2, §3
(§7) The lowest therapeutic dose was 0.1 mgm/kg i.v., which is about 100 to 200 times smaller than the mean toxic dose.

The subject of the next data set is anesthetized dogs. Put plainly: animal or person. The format is in vivo, dog. Here is the method: as §4, §5, §6, §1, §2, §3, §7
The nature of data set [3]: Acute i.v. toxicity in mice. The note with it: mouse, in vivo, iv, tail vein, LITCHFIELD and WILCOXON, read-out: median lethal dose (LD50). The method, then: 4. Acute i.v. toxicity in mice
Mice of both sexes having a body weight of 20 to 25 gm were used. The test compound was dissolved in distilled water and injected into the mice with a volume of 0.1 ml/10 gm body weight by way of a tail vein. Each dose was injected into 10 mice. The number of dead animals was determined and the median lethal dose (LD50) was calculated using the method of LITCHFIELD and WILCOXON [J. Pharmac. Exp. Ther. 96, 99 (1949)].

For data set [4], the system named is adrenalin-induced ventricular arrhythmia in dogs. As to the kind of experiment: Prevention of ventricular arrhythmia provoked by adrenalin in dogs under halothane anesthesia. The format is in vivo, dog. The note with it: Canis lupus familiaris, iv, 5 min, i.v., 4 dogs, adrenalin 5 minutes after compound, read-out: mean dose that abolished the adrenalin arrhythmias. The method, then: as §4, §5, §6

≈ marks a conversion by molar mass, not a printed value. Where a name gives a salt, the structure may show the parent alone.

As for `CN(C)CCOc1ccccc1C=Cc1cnccn1` [H, 2-[o-(β-Dimethylamino-ethoxy)-styryl] -pyrazine], in data set [1], the EC50 was 25 µg/mL (≈ 92.8 µM).

In the case of `Cc1cccc(C=Cc2ccccc2OCCN(C)C)n1.Cl` [Compound E, 2-[o-(β-Dimethylamino-ethoxy)-styryl]-6-methyl-pyridine hydrochloride], the EC50 in data set [1] came to 6.3 µg/mL.

As for `CC(=Cc1ccccc1OCCN(C)C)c1ccccn1` [D, 1-[o-(β-Dimethylamino-ethoxy)-phenyl]-2-(pyridyl-2)-propene-1 monohydrochloride], the EC50 in data set [1] stood at 3.1 µg/mL.

With `CN(C)CCOc1ccccc1C=Cc1ccccc1.Cl` [I, 2-(2-Dimethylamino-ethoxy)-stilbene hydrochloride], in data set [1], the EC50 was found to be 10 µg/mL.

With `CN(C)CCOc1ccccc1C=Cc1ccccn1.Cl` [A, 2-[o-(β-Dimethylamino-ethoxy)-styryl]-pyridine monohydrochloride], the minimal effective dose came out at 0.76 ± 0.18 mg/kg in data set [2] (Canis lupus familiaris, iv, i.v. infusion 0.2 mgm/kg per minute, ouabain-induced tachycardia, read-out: mean dose required to convert the ventricular tachycardia to sinus rhythm); 0.1 mg/kg in the data set on anesthetized dogs (Canis lupus familiaris, iv, read-out: lowest therapeutic dose); 0.18 ± 0.04 mg/kg in data set [4]. Further, the selectivity ratio in “in vivo” lay in the range of 100 to 200. Besides, the “antiarrhythmic effectiveness (in words)” value in the data set on anesthetized dogs (anesthetized dogs) is “very effective antiarrhythmic compound”. Besides, in the data set with anesthetized dogs (dog, in vivo, iv), the “therapeutic ratio (in words)” value is “excellent therapeutic ratio”. For the same molecule, the 50% lethal dose (LD50) in data set [3] is 25 mg/kg. Also, the EC50 in data set [1] is 3.8 µg/mL.

Take `C[C@@H]1O[C@@H](O[C@H]2C[C@@H](O)[C@]3(CO)[C@H]4[C@H](O)C[C@]5(C)[C@@H](C6=CC(=O)OC6)CC[C@]5(O)[C@@H]4CC[C@]3(O)C2)[C@H](O)[C@H](O)[C@H]1O` [ouabain, reference compound]: the “mean dose of ouabain to produce ventricular tachycardia” value in data set [2] (intravenous) was determined as 60 ± 2.8 mg/kg.

Take `CNCCOc1ccccc1C=Cc1ccccn1` [B, 2-[0-(β-Methylamino-ethoxy)-styryl]-pyridine dihydrochloride]: in data set [1], the EC50 turned out to be 8.3 µg/mL.

As to `CN(C)CCOc1ccccc1C=Cc1nc2ccccc2n1C.Cl.Cl` [G, 2-[o-(β-Dimethylamino-ethoxy)-styryl]-1-methyl-benzimidazole dihydrochloride], the EC50 in data set [1] amounted to 9 µg/mL.

For the molecule `CN(C)CCOc1ccccc1C=Cc1ccc2ccccc2n1.Cl` [F, 2-[o-(β-Dimethylamino-ethoxy)-styryl]-quinoline hydrochloride], the EC50 in data set [1] was 10 µg/mL.

Regarding `C(=Cc1ccccc1OCCN1CCOCC1)c1ccccn1` [C, 2-[0-(β-Morpholino-ethoxy)-styryl]-pyridine dihydrochloride], the EC50 in data set [1] is 33 µg/mL.

What is called LD50 is the dose expected to kill half of the subjects tested.
